This passage reports GI50 and TGI results from PubChem BioAssay (NCI).

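How tested: cells in 96-well plates exposed to compound for 48 hours at five concentrations. At the GI50, growth is halved. TGI is the concentration that stops growth completely.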

Some test systems named below: NCI-H226 lung; HOP-62 NSCLC; SK-MEL-2 melanoma; SR leukemia; DU-145 prostate; MDA-MB-435; IGROV1 ovarian; K-562 leukemia; MDA-MB-231 breast; SK-OV-3 ovarian.
Experiment in all cases: inhibition of tumour cell growth, NCI panel, 48 h

Consider `Cc1cc(I)cc(CNCCN(C)C)c1O`, for which the GI50 with NCI-H226 lung was more than 100 µM; in the assay with HOP-62 NSCLC it was more than 100 µM; with SK-MEL-2 melanoma, more than 77.2 µM; in the assay with DU-145 prostate it was 98.8 µM; in the assay with MDA-MB-435 it was 37.1 µM; in the assay with IGROV1 ovarian, 48.4 µM. Besides, the GI50 in the assay on K-562 leukemia is more than 76.1 µM; with MDA-MB-231 breast, more than 59.5 µM; with SK-OV-3 ovarian, more than 100 µM. The TGI was more than 100 µM with NCI-H226 lung; more than 100 µM with HOP-62 NSCLC; more than 100 µM with SK-MEL-2 melanoma; 0.383 µM in the assay with SR leukemia; more than 100 µM with DU-145 prostate; more than 100 µM with MDA-MB-435. Moreover, the TGI in the assay on IGROV1 ovarian, with K-562 leukemia, in the assay on MDA-MB-231 breast and in the assay on SK-OV-3 ovarian was more than 100 µM each time.
For `COc1cccc2c1nc(C(F)F)n2-c1nc(-c2ccc(NS(=O)(=O)CCN(C)C)cc2)nc(N2CCOCC2)n1`, the GI50 with NCI-H226 lung was 0.191 µM; with HOP-62 NSCLC it was 0.123 µM; in the assay on SK-MEL-2 melanoma it was 0.195 µM; in the assay on SR leukemia, 0.319 µM; in the assay on DU-145 prostate, 0.162 µM; with MDA-MB-435, 0.132 µM. Besides, the GI50 in the assay with IGROV1 ovarian is 0.0261 µM; in the assay on K-562 leukemia it was 1.2 µM; in the assay with MDA-MB-231 breast it was 0.617 µM; in the assay with SK-OV-3 ovarian it was 0.0396 µM. Besides, the TGI in the assay on NCI-H226 lung came out at 6.43 µM; in the assay on HOP-62 NSCLC, 6.56 µM; with SK-MEL-2 melanoma, 2.5 µM; with SR leukemia it was 3.87 µM; with DU-145 prostate, 11.7 µM; in the assay on MDA-MB-435 it was 7.2 µM. Moreover, the TGI with IGROV1 ovarian was 0.154 µM; in the assay with K-562 leukemia, 11.4 µM; in the assay with MDA-MB-231 breast, 37.2 µM; with SK-OV-3 ovarian, 0.214 µM.
`O=C(N/N=C/c1ccc(Cl)cc1)c1ccc(NC(=O)c2ccccn2)cc1`: the GI50 in the assay with NCI-H226 lung is 24.5 µM; in the assay on HOP-62 NSCLC, 18.2 µM; with SK-MEL-2 melanoma, 17.7 µM; in the assay with SR leukemia, 70.8 µM; in the assay with DU-145 prostate, 27.2 µM; with MDA-MB-435, 23.8 µM. For the same compound, the GI50 in the assay with IGROV1 ovarian was 38.1 µM; with K-562 leukemia, more than 100 µM; in the assay with MDA-MB-231 breast, 27.3 µM; in the assay with SK-OV-3 ovarian it was 31 µM. The TGI is more than 100 µM in the assay on NCI-H226 lung; 91.3 µM in the assay on HOP-62 NSCLC; more than 100 µM in the assay on SK-MEL-2 melanoma; more than 100 µM in the assay with SR leukemia; more than 100 µM in the assay with DU-145 prostate; more than 100 µM in the assay with MDA-MB-435. Further, the TGI with IGROV1 ovarian, in the assay on K-562 leukemia, in the assay on MDA-MB-231 breast and with SK-OV-3 ovarian was more than 100 µM each time.
As for `C[N+]1([O-])C2CCC1CC(OC(=O)C(CO)c1ccccc1)C2` (centres undefined), the TGI in the assay with NCI-H226 lung, in the assay on HOP-62 NSCLC, with SK-MEL-2 melanoma, in the assay with SR leukemia, in the assay on DU-145 prostate and in the assay on MDA-MB-435 was more than 100 µM each time. In addition, the TGI with IGROV1 ovarian, in the assay on K-562 leukemia, in the assay with MDA-MB-231 breast and in the assay on SK-OV-3 ovarian was more than 100 µM each time.
Turning to `O=C(/C=C\c1ccc(O)c(O)c1)c1ccccc1O`, the GI50 in the assay on NCI-H226 lung is 11 µM; in the assay on HOP-62 NSCLC, 12.6 µM; in the assay on SK-MEL-2 melanoma it was 12 µM; in the assay with SR leukemia, 3.17 µM; in the assay with DU-145 prostate it was 11.7 µM; in the assay on MDA-MB-435, 6.45 µM. Also, the GI50 is 0.711 µM with IGROV1 ovarian, 12.5 µM in the assay on K-562 leukemia, 9.51 µM in the assay with MDA-MB-231 breast and 17.7 µM in the assay on SK-OV-3 ovarian. The TGI with NCI-H226 lung came to 39.1 µM; in the assay with HOP-62 NSCLC, 50.8 µM; in the assay on SK-MEL-2 melanoma, 41.7 µM; with SR leukemia, 69.8 µM; in the assay with DU-145 prostate it was 45.3 µM; in the assay on MDA-MB-435 it was 39.4 µM. The TGI in the assay with IGROV1 ovarian is 23.8 µM; in the assay on K-562 leukemia, 71.5 µM; in the assay on MDA-MB-231 breast it was 37 µM; in the assay on SK-OV-3 ovarian, 71.6 µM.
Turning to `COc1ccc(C2=NN(C(N)=S)C(c3ccc4c(c3)OCO4)C2)cc1` (centres undefined), the GI50 in the assay with NCI-H226 lung was 2.49 µM; with HOP-62 NSCLC it was 3.56 µM; in the assay on SK-MEL-2 melanoma, 3.12 µM; in the assay on SR leukemia, 3.08 µM; in the assay with DU-145 prostate, 1.94 µM; with MDA-MB-435 it was 2.39 µM. Besides, the GI50 in the assay on IGROV1 ovarian is 2.42 µM; in the assay with K-562 leukemia it was 2.89 µM; with MDA-MB-231 breast, 4.71 µM; in the assay on SK-OV-3 ovarian, 2.35 µM. For the same compound, the TGI in the assay on NCI-H226 lung was 6.84 µM; with HOP-62 NSCLC, more than 100 µM; with SK-MEL-2 melanoma, 38.9 µM; in the assay on SR leukemia, 11.8 µM; in the assay on DU-145 prostate, 4.56 µM; in the assay on MDA-MB-435, 7.26 µM. In addition, the TGI with IGROV1 ovarian is 6.8 µM; in the assay on K-562 leukemia, more than 100 µM; in the assay on MDA-MB-231 breast, 65.7 µM; with SK-OV-3 ovarian, 6.12 µM.
Take `O=C1NN2CC(c3ccccc3)=NN=C2c2ccccc21`: the GI50 is 22.8 µM with NCI-H226 lung; 35 µM in the assay with HOP-62 NSCLC; 52.8 µM in the assay with SK-MEL-2 melanoma; 0.507 µM with SR leukemia; 31.3 µM with DU-145 prostate; 36.7 µM with MDA-MB-435. Moreover, the GI50 in the assay with IGROV1 ovarian is 42.8 µM; with K-562 leukemia it was 28.2 µM; with MDA-MB-231 breast, 26.4 µM; in the assay on SK-OV-3 ovarian, 24.2 µM. In addition, the TGI in the assay on NCI-H226 lung was 57.8 µM; in the assay on HOP-62 NSCLC, more than 100 µM; in the assay on SK-MEL-2 melanoma, more than 100 µM; in the assay with SR leukemia it was 42 µM; with DU-145 prostate, 99 µM; in the assay with MDA-MB-435, more than 100 µM. The TGI is more than 100 µM in the assay with IGROV1 ovarian, more than 100 µM in the assay with K-562 leukemia, 79.1 µM with MDA-MB-231 breast and 51 µM in the assay with SK-OV-3 ovarian.
For the compound `CNC(=O)Oc1cc(C(C)C)ccc1Sc1ccc(C(C)C)cc1OC(=O)NC`, the GI50 in the assay with NCI-H226 lung is 10 µM; in the assay on HOP-62 NSCLC, 9.56 µM; with SK-MEL-2 melanoma it was 4.21 µM; with SR leukemia, 2.2 µM; in the assay with DU-145 prostate it was 4.32 µM; in the assay with MDA-MB-435, 2.29 µM. The GI50 in the assay with IGROV1 ovarian is 4.98 µM; with K-562 leukemia, 1.27 µM; with MDA-MB-231 breast, 5.48 µM; in the assay on SK-OV-3 ovarian, 10.5 µM. For the same compound, the TGI was determined as 25.5 µM with NCI-H226 lung; 22.6 µM in the assay on HOP-62 NSCLC; 17.3 µM with SK-MEL-2 melanoma; 10 µM in the assay with SR leukemia; 14.3 µM in the assay with DU-145 prostate; 10 µM with MDA-MB-435. Also, the TGI with IGROV1 ovarian stood at 23.8 µM; in the assay on K-562 leukemia, 14.5 µM; in the assay on MDA-MB-231 breast, 19.4 µM; in the assay with SK-OV-3 ovarian it was 23.7 µM.
Turning to `C/C(=C\C(=O)O[C@H]1[C@@H]2[C@H](C)CC[C@H]2[C@]2(C)O[C@@]1(C1CCCCC1)C[C@H]2OC(=O)CO)c1ccccc1`, the GI50 with NCI-H226 lung was 5.98 µM; in the assay on HOP-62 NSCLC it was 7 µM; in the assay on SK-MEL-2 melanoma, 7.05 µM; in the assay on SR leukemia, 6.87 µM; in the assay on DU-145 prostate it was 7.01 µM; in the assay on MDA-MB-435, 6.84 µM. In addition, the GI50 with IGROV1 ovarian was 7.58 µM; in the assay with K-562 leukemia, 7.82 µM; with MDA-MB-231 breast, 6.67 µM; in the assay on SK-OV-3 ovarian it was 7.15 µM. Further, the TGI with NCI-H226 lung came to 12.3 µM; with HOP-62 NSCLC it was 13 µM; in the assay on SK-MEL-2 melanoma it was 13.4 µM; in the assay with SR leukemia, 15 µM; in the assay on DU-145 prostate, 12.6 µM; with MDA-MB-435 it was 12.9 µM. Further, the TGI in the assay on IGROV1 ovarian turned out to be 14.7 µM; in the assay with K-562 leukemia it was 17.6 µM; in the assay on MDA-MB-231 breast, 13 µM; in the assay on SK-OV-3 ovarian, 13.2 µM.
